This is an account of results in US6794494B1, “Cancerous disease modifying antibodies” (Arius Research, Inc., priority 2003, dated 2004).

Data set [1] has as its system HT-29 cells. To be noted: human.
The next data set has as its system MB-231 cells. To be noted: 5 days; four experiments in triplicate; concentration (10A304.7, Anti-Fas, 107.3, MPC-11 20 μg/mL; c225 5 μg/mL; Cycloheximide 100 μM).
The test system of a further data set is MCF-7 cells. Conditions: 5 days; four experiments in triplicate; concentration (10A304.7, Anti-Fas, 107.3, MPC-11 20 μg/mL; c225 5 μg/mL; Cycloheximide 100 μM).
Another data set relates to DLD-1 cells. Conditions: 5 days; four experiments in triplicate; concentration (10A304.7, Anti-Fas, 107.3, MPC-11 20 μg/mL; c225 5 μg/mL; Cycloheximide 100 μM).
Data set [2] deals with SW620 cells. The data set can be described thus: Live/Dead cytotoxicity assay, purified antibody. Conditions: 5 days; four experiments in triplicate; concentration (10A304.7, Anti-Fas, 107.3, MPC-11 20 μg/mL; c225 5 μg/mL; Cycloheximide 100 μM).
Another data set deals with OVCAR cells. To be noted: 5 days; four experiments in triplicate; concentration (10A304.7, Anti-Fas, 107.3, MPC-11 20 μg/mL; c225 5 μg/mL; Cycloheximide 100 μM).
The next data set relates to BxPC-3 cells. Conditions: 5 days; four experiments in triplicate; concentration (10A304.7, Anti-Fas, 107.3, MPC-11 20 μg/mL; c225 5 μg/mL; Cycloheximide 100 μM).
For another data set, the system named is PC-3 cells. Conditions: 5 days; four experiments in triplicate; concentration (10A304.7, Anti-Fas, 107.3, MPC-11 20 μg/mL; c225 5 μg/mL; Cycloheximide 100 μM).
In the next data set the test system is Lovo cells. To be noted: 5 days; four experiments in triplicate; concentration (10A304.7, Anti-Fas, 107.3, MPC-11 20 μg/mL; c225 5 μg/mL; Cycloheximide 100 μM).
Data set [3] relates to SW620 cells. To be noted: human.
Data set [4] has as its system HT-29 cells. Description: Live/Dead cytotoxicity assay, purified antibody. Conditions: 5 days; four experiments in triplicate; concentration (10A304.7, Anti-Fas, 107.3, MPC-11 20 μg/mL; c225 5 μg/mL; Cycloheximide 100 μM).
Data set [5] concerns SW1116 cells. The data set can be described thus: Live/Dead cytotoxicity assay, hybridoma supernatant. Conditions: hybridoma supernatant or controls, 5 days.
Data set [6] has as its system SW1116 cells. To be noted: 5 days; four experiments in triplicate; concentration (10A304.7, Anti-Fas, 107.3, MPC-11 20 μg/mL; c225 5 μg/mL; Cycloheximide 100 μM).
Another data set deals with colorectal cancer. Conditions: cited from earlier work.

For the molecule `C[C@@H]1C[C@@H]([C@H](O)CC2CC(=O)NC(=O)C2)C(=O)[C@@H](C)C1` [Cycloheximide], the “Cytotoxicity (%) HT-29 Average” value with HT-29 cells [1] amounted to 23%. The “Cytotoxicity above background, Breast MB-231” value in the data set on MB-231 cells is recorded as “++++ (4/4 experiments with 15% cytotoxicity above background (++++))”. For the same molecule, the “Cytotoxicity above background, Breast MCF-7” value in the data set with MCF-7 cells is on record as “++++ (4/4 experiments with 15% cytotoxicity above background (++++))”. Besides, the “Cytotoxicity above background, Colon DLD-1” value with DLD-1 cells is given as “++++ (4/4 experiments with 15% cytotoxicity above background (++++))”. Moreover, in the data set on SW620 cells [2], the “Cytotoxicity above background, Colon SW820” value is given as “++++ (4/4 experiments with 15% cytotoxicity above background (++++))”. Also, the “Cytotoxicity above background, Ovary OVCAR” value in the data set with OVCAR cells is given as “++++ (4/4 experiments with 15% cytotoxicity above background (++++))”. The “Cytotoxicity above background, Pancreas BxPC-3” value in the data set on BxPC-3 cells is “++++ (4/4 experiments with 15% cytotoxicity above background (++++))”. The “Cytotoxicity above background, Prostate PC-3” value in the data set on PC-3 cells was “++++ (4/4 experiments with 15% cytotoxicity above background (++++))”. Moreover, the “Cytotoxicity above background, Colon Lovo” value in the data set on Lovo cells is “++++ (4/4 experiments with 15% cytotoxicity above background (++++))”. The “Cytotoxicity (%) SW620 Average” value with SW620 cells [3] is given as −2%. Besides, the “Cytotoxicity above background, Colon HT-29” value in the data set with HT-29 cells [4] is “++++ (4/4 experiments with 15% cytotoxicity above background (++++))”. Also, the “Cytotoxicity (%) SW1116 Average” value in the data set on SW1116 cells [5] was 17%. In addition, the “Cytotoxicity above background, Colon SW1116” value with SW1116 cells [6] is recorded as “++++ (4/4 experiments with 15% cytotoxicity above background (++++))”.

B1: 17-1A: antibody with some specificity for adenocarcinomas, tested in colorectal cancer clinical trials (antibody, chains of the INN, looked up, V domains shown)
VH: QVQLQQSGAELVRPGTSVKVSCKASGYAFTNYLIEWVKQRPGQGLEWIGVINPGSGGTNYNEKFKGKATLTADKSSSTAYMQLSSLTSDDSAVYFCARDGPWFAYWGQGTLVTVSA
VL: NIVMTQSPKSMSMSVGERVTLTCKASENVVTYVSWYQQKPEQSPKLLIYGASNRYTGVPDRFTGSGSATDFTLTISSVQAEDLADYHCGQGYSYPYTFGGGTKLEIK
As to B1, the “clinical response, protocols using additional cyclophosphamide” value in the data set on colorectal cancer (52 patients, with cyclophosphamide) is “only one complete response and two minor responses among 52 patients”. Moreover, in the data set with colorectal cancer (over 60 patients), the “clinical response, Phase 2 clinical trials” value is recorded as “only one patient having a partial response”.
